The values that follow come from patent US9149475B2, “Protein kinase C inhibitors and uses thereof” (Rigel Pharmaceuticals, Inc., priority 2009, dated 2015).

SMILES strings stand for the structures. Some results are limits rather than exact numbers.

The test system of one assay is Human primary T cells. In words: IL-2 ELISA, human primary T cell, anti-CD3+CD28+ (whole cell assay). Conditions: Homo sapiens, T-cell, 24 h, human primary T cells stimulated with anti-CD3 + anti-CD28, 24 hours. It is filed as cell-based. The method, boiled down:
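IL-2 secreted over 24 h at 37° C was quantified by ELISA after plate-bound αCD3 (1 μg/ml) and αCD28 (5 μg/ml) stimulation, or PMA (0.5 ng/ml) with ionomycin (0.1 μM) as counter-screen. Cells were IL-2-starved primary human T cells, expanded from volunteer PBMC and exposed to compound for 1 hr beforehand.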
As a reminder, the IC50 is the midpoint of a concentration-inhibition curve. For the compound `CC(C)Oc1ncc(Nc2ncc(F)c(NC3CC(C)(C)N(C)C(C)(C)C3)n2)cc1-c1nnnn1C` [Compound I-126, 5-fluoro-N2-(6-isopropoxy-5-(1-methyl-1H-tetrazol-5-yl)pyridin-3-yl)-N4-(1,2,2,6,6-pentamethylpiperidin-4-yl)pyrimidine-2,4-diamine], the IC50 was below 250 nM. For `CC(C)N1CCCC(Oc2ccc(Nc3ncc(F)c(NC4CC(C)(C)NC(C)(C)C4)n3)cc2OC(F)F)CC1` (stereo not drawn) [III-40, N2-(3-(difluoromethoxy)-4-(1-isopropylazepan-4-yloxy)phenyl)-5-fluoro-N4-(2,2,6,6-tetramethylpiperidin-4-yl)pyrimidine-2,4-diamine], the IC50 lay in the range of 250 to 500 nM. In the case of `Cc1ccc(C)n1-c1cc(Nc2ncc(F)c(NC3CC(C)(C)NC(C)(C)C3)n2)ccc1OC(C)C` [Compound I-16, N2-(4-isopropyloxy-3-(2,5-dimethyl-1H-pyrrol-1-yl)phenyl)-5-fluoro-N4-(2,2,6,6-tetramethylpiperidin-4-yl)pyrimidine-2,4-diamine], the half-inhibitory concentration (IC50) is above 1000 nM. Take `CC1(C)CC(Nc2nc(Nc3cc(F)cc(OCCCn4cccc4)c3)ncc2F)CC(C)(C)N1` [Compound I-35, N2-(3-(3-(1H-pyrrol-1-yl)propoxy)-5-fluorophenyl)-5-fluoro-N4-(2,2,6,6-tetramethylpiperidin-4-yl)pyrimidine-2,4-diamine]: the IC50 lay within 500 to 1000 nM. Regarding `CC1CC(Nc2nc(Nc3cccc(-n4nnnc4SCC(F)(F)F)c3)ncc2F)CC(C)N1C1CC1` (stereo not drawn) [III-9, N^4-(1-cyclopropyl-2,6-dimethylpiperidin-4-yl)-5-fluoro-N2-(3-(5-(2,2,2-trifluoroethylthio)-1H-tetrazol-1-yl)phenyl)pyrimidine-2,4-diamine], the IC50 is 250 to 500 nM. With `CC1(C)CC(Nc2nc(Nc3ccc(OC4CCN(CC(N)=O)CC4)c(F)c3)ncc2F)CC(C)(C)N1` [III-34, 2-(4-(2-Fluoro-4-(5-fluoro-4-(2,2,6,6-tetramethylpiperidin-4-ylamino)pyrimidin-2-ylamino)phenoxy)piperidin-1-yl)acetamide], the IC50 was above 1000 nM. As for `Cc1nnnn1-c1cccc(Nc2ncc(F)c(NC3CC(C)N(C4CC4)C(C)C3)n2)c1` (stereo not drawn) [III-8, N^4-(1-cyclopropyl-2,6-dimethylpiperidin-4-yl)-5-fluoro-N2-(3-(5-methyl-1H-tetrazol-1-yl)phenyl)pyrimidine-2,4-diamine], the IC50 was below 250 nM. With `CC(C)Oc1ncc(Nc2ncc(C#N)c(NC3CC(C)(C)NC(C)(C)C3)n2)cc1-c1nnnn1C(C)C` [Compound I-136, 2-(6-isopropoxy-5-(1-isopropyl-1H-tetrazol-5-yl)pyridin-3-ylamino)-4-(2,2,6,6-tetramethylpiperidin-4-ylamino)pyrimidine-5-carbonitrile], the IC50 was above 1000 nM. With `CN1C(C)(C)CC(Nc2nc(Nc3ccc(OCCCN4CCOCC4)c(OC(F)F)c3)ncc2F)CC1(C)C` [Compound I-48, N2-(4-(3-morpholinopropoxy)-3-(difluoromethoxy)phenyl)-5-fluoro-N4-(1,2,2,6,6-pentamethylpiperidin-4-yl)pyrimidine-2,4-diamine], the IC50 was below 250 nM.

As for `CC1(C)CC(Nc2nc(Nc3ccc(OCCn4ccnn4)c(OC(F)F)c3)ncc2C#N)CC(C)(C)N1` [Compound I-34, 4-(2,2,6,6-tetramethylpiperidin-4-ylamino)-2-(4-(2-(1H-1,2,3-triazol-1-yl)ethoxy)-3-(difluoromethoxy)phenylamino)pyrimidine-5-carbonitrile], the IC50 lay in the range of 500 to 1000 nM.

In the case of `CCOc1ccc(Nc2ncc(F)c(NC3CC(C)(C)N(C)C(C)(C)C3)n2)cc1OC(F)F` [Compound I-109, N2-(3-(difluoromethoxy)-4-ethoxyphenyl)-5-fluoro-N4-(1,2,2,6,6-pentamethylpiperidin-4-yl)pyrimidine-2,4-diamine], the 50% inhibitory concentration (IC50) was below 250 nM.

For `CCNC(=O)N1CCC(Oc2ccc(Nc3ncc(F)c(NC4CC(C)(C)N(C)C(C)(C)C4)n3)cc2F)CC1` [III-16, N-ethyl-4-(2-fluoro-4-(5-fluoro-4-(1,2,2,6,6-pentamethylpiperidin-4-ylamino)pyrimidin-2-ylamino)phenoxy)piperidine-1-carboxamide], the IC50 is above 1000 nM. Consider `CN1C(C)(C)CC(Nc2nc(Nc3ccc(Oc4cccnc4)c(OC(F)F)c3)ncc2F)CC1(C)C` [Compound I-44, N2-(3-(difluoromethoxy)-4-(pyridin-3-yloxy)phenyl)-5-fluoro-N4-(1,2,2,6,6-pentamethylpiperidin-4-yl)pyrimidine-2,4-diamine], for which the IC50 was 250 to 500 nM.

In the case of `CN1C(C)(C)CC(Nc2nc(Nc3cccc(-c4nnnn4CCF)c3)ncc2F)CC1(C)C` [III-74, 5-fluoro-N2-(3-(1-(2-fluoroethyl)-1H-tetrazol-5-yl)phenyl)-N4-(1,2,2,6,6-pentamethylpiperidin-4-yl)pyrimidine-2,4-diamine], the IC50 was in the range of 250 to 500 nM. Regarding `Cc1nnnn1-c1cc(Nc2ncc(F)c(NC3CC(C)(C)N(C)C(C)(C)C3)n2)ccc1OC(F)(F)F` [Compound I-20, 5-fluoro-N2-(3-(5-methyl-1H-tetrazol-1-yl)-4-(trifluoromethoxy)phenyl)-N4-(1,2,2,6,6-pentamethylpiperidin-4-yl)pyrimidine-2,4-diamine], the IC50 is below 250 nM. Regarding `CCOc1ncc(Nc2ncc(F)c(NC3CC(C)(C)N(C)C(C)(C)C3)n2)cc1OC(F)F` [Compound I-117, N2-(5-(difluoromethoxy)-6-ethoxypyridin-3-yl)-5-fluoro-N4-(1,2,2,6,6-pentamethylpiperidin-4-yl)pyrimidine-2,4-diamine], the IC50 lay within 250 to 500 nM. `CN1C(C)(C)CC(Nc2nc(Nc3ccc(Cl)c(-c4nnnn4C)c3)ncc2F)CC1(C)C` [III-131, N2-(4-chloro-3-(1-methyl-1H-tetrazol-5-yl)phenyl)-5-fluoro-N4-(1,2,2,6,6-pentamethylpiperidin-4-yl)pyrimidine-2,4-diamine]: the IC50 was below 250 nM. `CCOc1ncc(Nc2ncc(F)c(NC3CC(C)(C)NC(C)(C)C3)n2)cc1OC(F)F` [Compound I-118, N2-(5-(difluoromethoxy)-6-ethoxypyridin-3-yl)-5-fluoro-N4-(2,2,6,6-tetramethylpiperidin-4-yl)pyrimidine-2,4-diamine]: the IC50 lay within 250 to 500 nM.

Turning to `CC(=O)N1CCC(Oc2ccc(Nc3ncc(F)c(NC4CC(C)(C)N(C)C(C)(C)C4)n3)cc2F)CC1` [III-12, 1-(4-(2-fluoro-4-(5-fluoro-4-(1,2,2,6,6-pentamethylpiperidin-4-ylamino)pyrimidin-2-ylamino)phenoxy)piperidin-1-yl)ethanone], the concentration for half-maximal inhibition (IC50) is above 1000 nM. For the compound `CC1(C)CC(Nc2nc(Nc3cccc(-c4nnnn4CCF)c3)ncc2F)CC(C)(C)N1` [III-75, 5-fluoro-N2-(3-(1-(2-fluoroethyl)-1H-tetrazol-5-yl)phenyl)-N4-(2,2,6,6-tetramethylpiperidin-4-yl)pyrimidine-2,4-diamine], the concentration for half-maximal inhibition (IC50) was in the range of 500 to 1000 nM.

Still in this assay, the particulars now being: human primary T cells stimulated with anti-CD3 + anti-CD28, 24 hours.
For the compound `CCCc1nnnn1-c1cc(Nc2ncc(C(N)=O)c(NC3CC(C)(C)NC(C)(C)C3)n2)ccc1OC` [Compound I-76, 5-aminocarbonyl-N2-[4-methoxy-3-(5-propyl-1H-tetrazol-1-yl)]phenyl-N4-(2,2,6,6-tetramethylpiperidin-4-yl)-2,4-pyrimidinediamine], the half-inhibitory concentration (IC50) was above 1000 nM.
